A short description of data set [1]: CaCo2 Transwell transport (Papp, efflux ratio). In kind it is in vitro ADME, human. The note with it: human. The protocol:
(§1) The Transwell system was developed using the wild type Caco-2 cell line (passage 15–25) cultured in Dulbecco’s […] medium (DMEM) at standard conditions of 37 °C, 5% CO2, and 100% humidity as previously reported. […] To ensure a controlled growth environment the plate was covered with Breathe-Easier cell culture foil during the incubation period. The integrity of the developed monolayer was assessed by TEER before administration of compound solutions and after the final sampling stage.
(§2) The initial concentration of the drug was verified from a 20 µL sample taken immediately from the donor compartment after drug administration (t = 0).
(§3) The permeability coefficient (Papp) represents a measure for the efficiency of transport and was calculated with the following equation: Papp=ΔQ/Δt×V/C0⋅A where ∆Q/∆t = the rate of increase in drug concentration (accumulative mass transport) in the receiver compartment over time (µM/s), V = volume in the receiver compartment (mL), C0 = the initial concentration of drug in the donor compartment (µM), and A = the membrane surface area (cm^2).
(§4) To take into account the slightly nonlinear transfer characteristics of each compound, the rate of increase in drug concentration was determined for each time period and the Papp was then calculated. The average Papp was then determined with units of cm/s × 10^−6 or µm/s.
(§5) The efflux ratio was calculated according to the equation: Efflux ratio=PappB→A/PappA→B.
(§6) Statistical significance was determined using a simple Student’s t-test where a p value of <0.05 was considered significant.
Background: Caco-2 cells form a polarised layer with tight junctions and transporters.

In data set [2] the test system is CaCo2 monolayer. Description: CaCo2 Transwell transport (Papp, efflux ratio). Format: in vitro ADME, human. The protocol:
as §1, §2, §3, §4, §5, §6

On the set-up of data set [3]: method as in PMID 30544701. The settings on record: method not given, ref [45], cited from earlier work.
On the set-up of data set [4]: method as in PMID 17429625. The note with it: ref [32]; cited from earlier work.
Data set [5] has as its system CaCo2 cells. Description: Intracellular accumulation in CaCo2 Transwell cells at the end of the transport period. The settings on record: for Intracellular accumulation at the end of the transfer period (A->B): A->B incubation. In kind it is in vitro ADME, human. On the procedure:
(§7) In order to get insight in the barrier role of the CaCo2 model system, we determined the intracellular accumulation of the TKISs at the end of the transport period, in normal monolayers of CaCo2 cells and in several other colon cancer cell lines. At the end of the transport period (both from the B->A and A->B incubations), cells were harvested and intracellular accumulation was determined.
(§8) These cells were exposed to 20 μM of a TKI and were harvested after 2 h for determination of TKI concentration with LC-MS-MS. Values are means ± SEM for the number of experiments described in Figure 3, Figure 4, and Figure 5 and from three separate experiments for the monolayer CaCo2 and WiDr cells. […] A->B, mass transport from A to B; B->A, mass transport from B to A. For AFA, CRI, and DAS, no data in WiDr cells were available. […] The bar heights were not read.
(§9) In a different set of experiments, the CaCo2 cells were cultured in 6-wells plates as monolayers until semiconfluency. Two other colon cancer cell lines, WiDr and HT29, were cultured similarly. These cells were exposed for 2 h to various TKIs at concentrations varying from 50 nM to 20 µM). […] At the end of the incubation, cells were harvested, as described earlier, and extracted for drug analysis using LC-MS-MS as described above.

The test system of data set [6] is WiDr cells. Description: Growth inhibition of WiDr cells. Format: cell-based. The settings on record: Homo sapiens, 72 hr exposure, read-out: Concentration leading to 50% growth inhibition.
In another data set the test system is HT29 cells. Description: Intracellular accumulation in HT29 colon cancer cells. Format: in vitro ADME. The note with it: after 24 h. On the procedure: as §7
In a different set of experiments, the CaCo2 cells were cultured in 6-wells plates as monolayers until semiconfluency. Two other colon cancer cell lines, WiDr and HT29, were cultured similarly. […]

The test system of data set [7] is CaCo2 cells. Description: Intracellular accumulation in CaCo2 cells grown as normal monolayers. In kind it is in vitro ADME, human. The settings on record: 20 μM, 2 h. The protocol: as §8, §9
Data set [8] relates to CaCo2 monolayer. The note with it: 20 µM, previously reported, ref [39], cited from earlier work.
Data set [9] deals with WiDr cells. Description: Intracellular accumulation in WiDr colon cancer cells (monolayer). In kind it is in vitro ADME. The settings on record: 20 μM, 2 h. The protocol: as §8, §9
Data set [10] in a line: Disposition in blood compartments (whole blood, plasma, serum) of patients. The settings on record: clinical samples. Format: in vivo, human. The protocol: Each individual sample was divided into two components; a 1 mL of tube of whole blood and 0.5 of plasma, each sample was stored at −20 °C until analysis could be performed. An additional serum sample was also obtained for patients treated with erlotinib. Blood samples for afatinib were obtained from NSCLC patients after 4 days receiving the standard daily dose of 40 mg.
Blood samples were taken at 1, 2, and 30 days after the start of treatment. Samples were separated from the whole blood into plasma, serum, and a packed red blood cell pellet (using the MESED apparatus). In a dose escalation study in order to determine whether a high pulsatile dose of sorafenib could be given to patients, we analyzed red blood cells and whole blood in 12 patients treated with sorafenib at total doses ranging from 2000 to 2800 mg daily. From these patients, samples were collected in 3 cycles.
For sunitinib, initially pharmacokinetic samples were collected over the first 24 h period from a single patient, with a renal cell carcinoma receiving a nonstandard treatment schedule (700 mg biweekly), in comparison to the standard 50 mg daily dose. Whole blood samples were divided into plasma, serum, and a packed red blood cell pellet. This cohort could later be extended with 6 patients treated with 800 mg sunitinib every 2 weeks enrolled in a clinical study to determine the tolerability of pulsatile sunitinib.
Five blood samples were taken over a 5-month period and divided into whole blood, an extracted 100 µL of red blood cells, and a plasma sample.

Entries after “also recorded” stand apart in the source; their conditions may differ. Read-outs that look alike come from different tables or passages of the source.

Broadly, the Log P is the decadic logarithm of the partition coefficient of the neutral form, usually between octanol and water. Consider `Cc1nc(Nc2ncc(C(=O)Nc3c(C)cccc3Cl)s2)cc(N2CCN(CCO)CC2)n1` [Dasatinib, dasatinib], for which, in data set [1] (Caco-2, 20 µM, read-out: Efflux Ratio (Papp B–A / Papp A–B)), the efflux ratio at 180 min, 20 µM is over 5. In addition, the Papp A→B at 180 min, 20 µM in data set [1] (Caco-2, 20 µM, A–B, read-out: Papp (Apical Basolateral)) was found to be 3.4 ± 3.4 ×10⁻⁶ cm/s. For the same molecule, the Papp B→A at 180 min, 20 µM in [1] (Caco-2, 20 µM, B–A, read-out: Papp (Basolateral Apical)) was 20.4 ± 13.5 ×10⁻⁶ cm/s. Besides, the “Efflux Ratio (Papp B–A / Papp A–B)” value with CaCo2 monolayer [2] (20 µM) was 6.0. The “Total amount transferred apical to basolateral in 3 h” value in the data set with CaCo2 monolayer [2] (20 µM, A–B, 3 h) is given as 499.3 pmol. Moreover, the Papp basolateral to apical in the data set on CaCo2 monolayer [2] (20 µM, B–A) was found to be 20.4 ×10⁻⁶ cm/s. The “Total amount transferred basolateral to apical in 3 h” value in the data set on CaCo2 monolayer [2] (20 µM, B–A, 3 h) is listed as 13,889 pmol. The “Efflux Ratio (Papp B–A / Papp A–B)” value with CaCo2 monolayer [2] (20 µM, listed as dasatinib) is over 6. In data set [3], the “Log P” value is given as 2.24, the “Log D (pH 5.5)” value was −0.44 and the “Log D (pH 7.5)” value is reported as 2.17. In addition, in [4], the “Bioavailability (animal)” value is 14–27 [32] (animal) %. For the same molecule, in the data set on CaCo2 cells [5], the “Intracellular accumulation at the end of the transfer period (A->B)” value was determined as 1.1 pmol/μg protein. Besides, the IC50 in the data set on WiDr cells [6] came out at 60 nM. Further, the “Intracellular accumulation in HT29 cells” value in the data set on HT29 cells is reported as 0.14 pmol/μg protein.

Take `C#Cc1cccc(Nc2ncnc3cc(OCCOC)c(OCCOC)cc23)c1` [Erlotinib, erlotinib]: the efflux ratio at 180 min, 10 µM in data set [1] (Caco-2, 10 µM, read-out: Efflux Ratio (Papp B–A / Papp A–B)) amounted to 1.6; in data set [1] (Caco-2, with sorafenib (co-incubated, concentration not stated), 10 µM, with sorafenib, read-out: Efflux Ratio (Papp B–A / Papp A–B)) it was 1.4. For the same molecule, the Papp A→B at 180 min, 10 µM was determined as 0.35 ± 0.17 ×10⁻⁶ cm/s in data set [1] (Caco-2, with sorafenib (co-incubated, concentration not stated), 10 µM, A–B, with sorafenib, read-out: Papp (Apical Basolateral)) and 0.48 ± 0.26 ×10⁻⁶ cm/s in data set [1] (Caco-2, 10 µM, A–B, read-out: Papp (Apical Basolateral)). In addition, the Papp B→A at 180 min, 10 µM in data set [1] (Caco-2, with sorafenib (co-incubated, concentration not stated), 10 µM, B–A, with sorafenib, read-out: Papp (Basolateral Apical)) stood at 0.48 ± 0.3 ×10⁻⁶ cm/s; in data set [1] (Caco-2, 10 µM, B–A, read-out: Papp (Basolateral Apical)), 0.79 ± 0.65 ×10⁻⁶ cm/s. In addition, the “Papp apical to basolateral” value in the data set on CaCo2 monolayer [2] (10 µM, A–B) is 0.48 µm/s. Moreover, in the data set on CaCo2 cells [7], the “Intracellular accumulation in CaCo2 monolayer” value was “just detectable”. Further, the “Log P” value in data set [3] is recorded as 2.39. Besides, the “Log D (pH 5.5)” value in data set [3] is 2.74. Besides, the “Log D (pH 7.5)” value in data set [3] is 3.04. The “Papp (Apical Basolateral)” value with CaCo2 monolayer [8] (A–B) was 0.13 ± 0.001 ×10^−6 cm/s. The “Papp (Basolateral Apical)” value with CaCo2 monolayer [8] (B–A) is recorded as 0.70 ± 0.30 ×10^−6 cm/s. Besides, the results for the “Efflux Ratio (Papp B–A / Papp A–B)” value with CaCo2 monolayer [8] and in the data set on CaCo2 monolayer [8] (listed as erlotinib) were 5.4 and over 5, respectively. In addition, in the data set with CaCo2 cells [5], the “Intracellular accumulation at the end of the transfer period (A->B)” value is reported as “not detectable; also recorded: no erlotinib was detectable”. Besides, the “Intracellular accumulation at the end of the transfer period (B->A)” value with CaCo2 cells [5] (B->A incubation) is “no erlotinib was detectable”. The “Intracellular accumulation in WiDr cells” value with WiDr cells [9] is “no erlotinib”. For the same molecule, in data set [10] (human, whole blood and plasma, oral, read-out: Blood to plasma ratio), the blood plasma ratio was over 30. For the same molecule, the “Fold higher in whole blood compared to plasma” value in data set [10] (standard dosing regimen) was determined as 100 fold. Further, the “Intracellular accumulation in HT29 cells” value with HT29 cells amounted to 0.035 pmol/μg protein.

(Values after PMC7696666, “Epithelial Transfer of the Tyrosine Kinase Inhibitors Erlotinib, Gefitinib, Afatinib, Crizotinib, Sorafenib, Sunitinib, and Dasatinib: Implications for Clinical Resistance” (Cancers, 2020).)
